Test results taken from ChEMBL document CHEMBL1129093, “Synthesis and biological activities of a novel class of azole-containing antifungal agents” (1996).
≈ marks a conversion by molar mass, not a printed value.

What was measured:
Kluyveromyces marxianus = assay: Compound was tested in vitro for antifungal activity against Candida kefyr.; type: functional
Candida albicans = assay: Compound was tested in vitro for antifungal activity against Candida albicans.; type: functional
Cryptococcus neoformans = assay: Compound was tested in vitro for antifungal activity against Cryptococcus neoformans.; type: functional
Trichophyton benhamiae [1] = assay: (§1) Compound was tested in vitro for antifungal activity against Trichophyton mentagrophytes.; type: functional, Arthroderma benhamiae
Aspergillus flavus [2] = assay: (§2) Compound was tested in vitro for antifungal activity against Aspergillus flavus.; type: functional
Aspergillus fumigatus = assay: Compound was tested in vitro for antifungal activity against Aspergillus fumigatus.; type: functional
Trichophyton benhamiae [3] = assay: as §1; type: functional, trichophyton mentagro
Aspergillus flavus [4] = assay: as §2; type: functional, asperigillus

Clc1ccc(COC(Cn2ccnc2)c2ccc(Cl)cc2Cl)c(Cl)c1 (stereo not drawn) [MICONAZOLE] gave an MIC (Kluyveromyces marxianus) of 0.09 µg/mL (≈ 0.216 µM), an MIC (Candida albicans) of 12.5 µg/mL (≈ 30 µM) and an MIC (Cryptococcus neoformans) of 0.19 µg/mL (≈ 0.457 µM). It also gave an MIC (Trichophyton benhamiae [1]) of 0.39 µg/mL (≈ 0.937 µM), an MIC (Aspergillus flavus [2]) of 0.39 µg/mL (≈ 0.937 µM) and an MIC (Aspergillus fumigatus) of 0.39 µg/mL (≈ 0.937 µM).
Work on C[C@@H]1[C@H](O)[C@@H](C)/C=C/C=C/C=C/C=C/C=C/C=C/C=C/[C@H](O[C@@H]2O[C@H](C)[C@@H](O)[C@H](N)[C@@H]2O)C[C@@H]2O[C@](O)(C[C@@H](O)C[C@@H](O)[C@H](O)CC[C@@H](O)C[C@@H](O)CC(=O)O[C@H]1C)C[C@H](O)[C@H]2C(=O)O [AMPHOTERICIN B] yielded an MIC (Kluyveromyces marxianus) of 0.19 µg/mL (≈ 0.206 µM), an MIC (Candida albicans) of 0.19 µg/mL (≈ 0.206 µM) and an MIC (Cryptococcus neoformans) of 0.19 µg/mL (≈ 0.206 µM). It also gave an MIC (Trichophyton benhamiae [3]) of 1.56 µg/mL (≈ 1.69 µM), an MIC (Aspergillus fumigatus) of 25 µg/mL (≈ 27.1 µM) and an MIC (Aspergillus flavus [4]) of 12.5 µg/mL (≈ 13.5 µM).
For OC(Cn1cncn1)(Cn1cncn1)c1ccc(F)cc1F [FLUCONAZOLE], the MIC (Kluyveromyces marxianus) was 0.39 µg/mL (≈ 1.27 µM), the MIC (Candida albicans) was over 50 µg/mL and the MIC (Cryptococcus neoformans) was 3.12 µg/mL (≈ 10.2 µM). It also gave an MIC (Trichophyton benhamiae [1]) of over 50 µg/mL, an MIC (Aspergillus flavus [2]) of over 50 µg/mL and an MIC (Aspergillus fumigatus) of over 50 µg/mL.
Fc1ccc(CN2CCc3ccccc3C2Cn2ccnc2)cc1 (stereo not drawn) gave an MIC (Kluyveromyces marxianus) of over 50 µg/mL, an MIC (Candida albicans) of over 50 µg/mL and an MIC (Cryptococcus neoformans) of over 50 µg/mL. It also gave an MIC (Trichophyton benhamiae [3]) of 0.1 µg/mL (≈ 0.311 µM), an MIC (Aspergillus fumigatus) of 12.5 µg/mL (≈ 38.9 µM) and an MIC (Aspergillus flavus [4]) of 6.25 µg/mL (≈ 19.4 µM).
Work on Fc1ccc(CN2CCc3ccccc3C2Cn2cncn2)cc1 (stereo not drawn) yielded an MIC (Kluyveromyces marxianus) of over 50 µg/mL, an MIC (Candida albicans) of over 50 µg/mL and an MIC (Cryptococcus neoformans) of over 50 µg/mL. For the same compound, the MIC (Trichophyton benhamiae [3]) was 1 µg/mL (≈ 3.1 µM), the MIC (Aspergillus fumigatus) was over 50 µg/mL and the MIC (Aspergillus flavus [4]) was over 50 µg/mL.
For Clc1ccc(CN2CCc3ccccc3C2Cn2ccnc2)cc1 (stereo not drawn), the MIC (Kluyveromyces marxianus) was 0.1 µg/mL (≈ 0.296 µM), the MIC (Candida albicans) was over 50 µg/mL and the MIC (Cryptococcus neoformans) was 0.39 µg/mL (≈ 1.15 µM). For the same compound, the MIC (Trichophyton benhamiae [3]) was 0.19 µg/mL (≈ 0.562 µM), the MIC (Aspergillus fumigatus) was 3.12 µg/mL (≈ 9.23 µM) and the MIC (Aspergillus flavus [4]) was 0.19 µg/mL (≈ 0.562 µM).
Clc1ccc(CN2CCc3ccccc3C2Cn2ccnc2)c(Cl)c1 (stereo not drawn) showed an MIC (Kluyveromyces marxianus) of 0.19 µg/mL (≈ 0.51 µM), an MIC (Candida albicans) of over 50 µg/mL and an MIC (Cryptococcus neoformans) of 1.56 µg/mL (≈ 4.19 µM). The MIC (Trichophyton benhamiae [3]) was 6.25 µg/mL (≈ 16.8 µM), the MIC (Aspergillus fumigatus) was 0.39 µg/mL (≈ 1.05 µM) and the MIC (Aspergillus flavus [4]) was 0.78 µg/mL (≈ 2.1 µM).
For Fc1ccc(CN2CCc3ccccc3C2Cn2ccnc2)c(F)c1 (stereo not drawn), the MIC (Kluyveromyces marxianus) was over 50 µg/mL, the MIC (Candida albicans) was over 50 µg/mL and the MIC (Cryptococcus neoformans) was over 50 µg/mL. For the same compound, the MIC (Trichophyton benhamiae [3]) was 0.39 µg/mL (≈ 1.15 µM), the MIC (Aspergillus fumigatus) was 6.25 µg/mL (≈ 18.4 µM) and the MIC (Aspergillus flavus [4]) was 0.78 µg/mL (≈ 2.3 µM).
c1ccc(CN2CCc3ccccc3C2Cn2cncn2)cc1 (stereo not drawn) was tested, and the MIC (Kluyveromyces marxianus) was over 50 µg/mL, the MIC (Candida albicans) was over 50 µg/mL and the MIC (Cryptococcus neoformans) was over 50 µg/mL. For the same compound, the MIC (Trichophyton benhamiae [3]) was 4 µg/mL (≈ 13.1 µM), the MIC (Aspergillus fumigatus) was over 50 µg/mL and the MIC (Aspergillus flavus [4]) was over 50 µg/mL.
Clc1ccc(CN2CCc3ccccc3C2Cn2cncn2)c(Cl)c1 (stereo not drawn) showed an MIC (Kluyveromyces marxianus) of over 50 µg/mL, an MIC (Candida albicans) of over 50 µg/mL and an MIC (Cryptococcus neoformans) of 12.5 µg/mL (≈ 33.5 µM). The MIC (Trichophyton benhamiae [3]) was 4 µg/mL (≈ 10.7 µM), the MIC (Aspergillus fumigatus) was over 50 µg/mL and the MIC (Aspergillus flavus [4]) was over 50 µg/mL.
Clc1ccc(CN2CCc3ccccc3C2Cn2cncn2)cc1 (stereo not drawn) gave an MIC (Kluyveromyces marxianus) of 0.39 µg/mL (≈ 1.15 µM), an MIC (Candida albicans) of over 50 µg/mL and an MIC (Cryptococcus neoformans) of 6.25 µg/mL (≈ 18.4 µM). It also gave an MIC (Trichophyton benhamiae [3]) of 0.25 µg/mL (≈ 0.738 µM), an MIC (Aspergillus fumigatus) of 4 µg/mL (≈ 11.8 µM) and an MIC (Aspergillus flavus [4]) of 25 µg/mL (≈ 73.8 µM).
Fc1ccc(CN2CCc3ccccc3C2Cn2cncn2)c(F)c1 (stereo not drawn) showed an MIC (Kluyveromyces marxianus) of 0.39 µg/mL (≈ 1.15 µM), an MIC (Candida albicans) of over 50 µg/mL and an MIC (Cryptococcus neoformans) of over 50 µg/mL. For the same compound, the MIC (Trichophyton benhamiae [3]) was 2 µg/mL (≈ 5.88 µM), the MIC (Aspergillus fumigatus) was over 50 µg/mL and the MIC (Aspergillus flavus [4]) was over 50 µg/mL.
For c1ccc(CN2CCc3ccccc3C2Cn2ccnc2)cc1 (stereo not drawn), the MIC (Kluyveromyces marxianus) was over 50 µg/mL, the MIC (Candida albicans) was over 50 µg/mL and the MIC (Cryptococcus neoformans) was over 50 µg/mL. For the same compound, the MIC (Trichophyton benhamiae [3]) was 0.19 µg/mL (≈ 0.626 µM), the MIC (Aspergillus fumigatus) was 25 µg/mL (≈ 82.4 µM) and the MIC (Aspergillus flavus [4]) was 25 µg/mL (≈ 82.4 µM).
